Measurements as given in patent publication US9533987B2, “Heterocyclic derivates” (KALVISTA PHARMACEUTICALS LIMITED, priority 2013, dated 2017).

Legend:
Human KLK1 = Human KLK1 (Homo sapiens (Human), UniProt P06870); assay: Determination of the IC50 for KLK1 (fluorogenic substrate H-DVal-Leu-Arg-AFC); format: biochemical; details: 37° C.
Procedure: Determination of the IC50 for KLK1
(§1) Human KLK1 (Callbiochem) was incubated at 37° C. with the fluorogenic substrate H-DVal-Leu-Arg-AFC and various concentrations of the test compound. Residual enzyme activity (initial rate of reaction) was determined by measuring the change in […] at 410 nm and the IC50 value for the test compound was determined.

Human plasma kallikrein = Human plasma kallikrein (Homo sapiens (Human), UniProt P03952); assay: Determination of the IC50 for plasma kallikrein (fluorogenic substrate H-DPro-Phe-Arg-AFC); format: biochemical; details: 37° C., read-out: IC50 (human PKaI)
Procedure: Determination of the IC50 for Plasma Kallikrein
as §1, with “plasma kallikrein (Protogen)” for “KLK1 (Callbiochem)”, “H-DPro-Phe-Arg-AFC” for “H-DVal-Leu-Arg-AFC”

Factor XIIa = Factor XIIa (Homo sapiens (Human), UniProt P00748); assay: Determination of enzyme selectivity, Factor XIIa; format: biochemical; details: substrate at Km concentration
Procedure: Determination of Enzyme Selectivity
Human serine protease enzymes plasmin, thrombin, trypsin, Factor Xa and Factor XIIa were assayed for enzymatic activity using an appropriate fluorogenic substrate. Protease activity was measured by monitoring the accumulation of liberated fluorescence from the substrate over 5 minutes. The linear rate of fluorescence increase per minute was expressed as percentage (%) activity. The Km for the cleavage of each substrate was determined by standard transformation of the Michaelis-Menten equation.

[1] = Pharmacokinetics following a single oral dose in male Sprague-Dawley rats; format: in vivo; details: rat, plasma
Procedure: Pharmacokinetic studies of the compounds in Table 16 were performed to assess the pharmacokinetics following a single oral dose in male Sprague-Dawley rats. […] Following dosing, blood samples were collected over a period of 24 hours. Sample times were 5, 15 and 30 minutes then 1, 2, 4, 6, 8, 12 and 24 hours. Following collection, blood samples were centrifuged and the plasma fraction analysed for concentration of test compound by LCMS.

Chain of Human plasma kallikrein (P03952 391-638): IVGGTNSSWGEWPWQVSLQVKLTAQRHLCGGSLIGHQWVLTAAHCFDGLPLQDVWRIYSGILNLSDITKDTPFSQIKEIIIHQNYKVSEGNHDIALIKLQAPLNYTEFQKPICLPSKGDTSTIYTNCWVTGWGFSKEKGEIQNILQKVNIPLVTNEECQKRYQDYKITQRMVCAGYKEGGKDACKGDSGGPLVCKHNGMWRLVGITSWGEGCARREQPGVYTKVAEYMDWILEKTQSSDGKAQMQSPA
Chain of Human plasma kallikrein (P03952 20-390 partner): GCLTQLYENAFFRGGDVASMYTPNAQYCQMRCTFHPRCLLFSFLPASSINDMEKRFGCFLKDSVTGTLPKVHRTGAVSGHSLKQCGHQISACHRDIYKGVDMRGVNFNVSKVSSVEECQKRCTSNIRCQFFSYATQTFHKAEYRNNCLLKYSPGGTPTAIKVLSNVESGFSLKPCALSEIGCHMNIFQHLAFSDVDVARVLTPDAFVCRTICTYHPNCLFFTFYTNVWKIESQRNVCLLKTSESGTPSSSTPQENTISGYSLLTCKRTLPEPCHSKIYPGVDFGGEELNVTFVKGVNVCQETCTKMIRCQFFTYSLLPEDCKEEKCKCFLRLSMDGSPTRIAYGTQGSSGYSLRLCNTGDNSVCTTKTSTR
Chain of Factor XIIa (P00748 373-615): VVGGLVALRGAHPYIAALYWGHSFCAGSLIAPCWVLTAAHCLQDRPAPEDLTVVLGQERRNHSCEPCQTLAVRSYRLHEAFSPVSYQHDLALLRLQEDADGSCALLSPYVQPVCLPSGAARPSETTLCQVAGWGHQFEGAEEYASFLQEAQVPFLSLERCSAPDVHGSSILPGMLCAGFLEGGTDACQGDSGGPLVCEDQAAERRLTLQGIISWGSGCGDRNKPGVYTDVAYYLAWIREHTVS
Chain of Human KLK1 (P06870 25-262): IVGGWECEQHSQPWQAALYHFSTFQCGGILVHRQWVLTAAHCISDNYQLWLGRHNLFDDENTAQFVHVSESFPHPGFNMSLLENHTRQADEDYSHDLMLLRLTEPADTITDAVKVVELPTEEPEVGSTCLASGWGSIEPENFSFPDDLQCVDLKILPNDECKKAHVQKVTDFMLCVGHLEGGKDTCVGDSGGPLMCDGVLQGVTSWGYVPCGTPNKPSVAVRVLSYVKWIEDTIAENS

SMILES	IC50 (Human KLK1) [µM]	IC50 (Human plasma kallikrein) [µM]	IC50 (Factor XIIa) [nM]	Cmax ([1]; single po dose 10 mg/kg) [ng/mL]	Tmax ([1]; single po dose 10 mg/kg) [min]	Cmax ([1]; single po dose 4 mg/kg) [ng/mL]	Tmax ([1]; single po dose 4 mg/kg) [min]
Cc1cnn(Cc2ccc(Cn3cc(C(=O)NCc4ccc5c(N)nccc5c4)c(C)n3)cc2)c1 [Example 11, 3-Methyl-1-[4-(4-methyl-pyrazol-1-ylmethyl)-benzyl]-1H-pyrazole-4-carboxylic acid (1-amino-isoquinolin-6-ylmethyl)-amide]	8.86	0.00189	> 10000	134	23	–	–
Cc1cnn(Cc2ccc(Cn3cc(C(=O)NCc4ccc5c(N)nccc5c4)c(C4CC4)n3)cc2)c1 [Example 12, 3-Cyclopropyl-1-[4-(4-methyl-pyrazol-1-ylmethyl)-benzyl]-1H-pyrazole-4-carboxylic acid (1-amino-isoquinolin-6-ylmethyl)-amide]	6.06	0.00258	> 10000	155	30	–	–
Nc1nccc2cc(CNC(=O)c3cn(Cc4ccc(N5CCCC5)nc4)nc3C(F)(F)F)ccc12 [Example 24, 1-(6-Pyrrolidin-1-yl-pyridin-3-ylmethyl)-3-trifluoromethyl-1H-pyrazole-4-carboxylic acid (1-amino-isoquinolin-6-ylmethyl)-amide]	> 4	0.00966	> 1000	–	–	97	420
Cc1cnn(Cc2ccc(Cn3cc(C(=O)NCc4ccc5c(N)nccc5c4)c(C(F)(F)F)n3)cc2)c1 [Example 36, 1-[4-(4-Methyl-pyrazol-1-ylmethyl)-benzyl]-3-trifluoromethyl-1H-pyrazole-4-carboxylic acid (1-amino-isoquinolin-6-ylmethyl)-amide]	> 40	0.00216	> 10000	642	75	–	–
Cc1nc(C)c(N(C)Cc2ccc(Cn3cc(C(=O)NCc4cnc5[nH]ccc5c4)cn3)cc2)s1 [Example 105, 1-(4-{[(2,4-Dimethyl-thiazol-5-yl)-methyl-amino]-methyl}-benzyl)-1H-pyrazole-4-carboxylic acid (1H-pyrrolo[2,3-b]pyridin-5-ylmethyl)-amide]	> 40	17	> 40000	–	–	–	–
O=C(NCc1cnc2[nH]ccc2c1)c1cnn(Cc2cccc(Oc3ncccc3F)c2)c1 [Example 106, 1-[3-(3-Fluoro-pyridin-2-yloxy)-benzyl]-1H-pyrazole-4-carboxylic acid (1H-pyrrolo[2,3-b]pyridin-5-ylmethyl)-amide]	> 40	12	> 40000	–	–	–	–
O=C(NCc1cnc2[nH]ccc2c1)c1cnn(Cc2ccc(Oc3ccccn3)cc2)c1 [Example 107, 1-[4-(Pyridin-2-yloxy)-benzyl]-1H-pyrazole-4-carboxylic acid (1H-pyrrolo[2,3-b]pyridin-5-ylmethyl)-amide]	38.1	2.3	> 40000	–	–	–	–
O=C(NCc1cnc2[nH]ccc2c1)c1cnn(Cc2cccc(Oc3ccccc3)c2)c1 [Example 108, 1-(3-Phenoxy-benzyl)-1H-pyrazole-4-carboxylic acid (1H-pyrrolo[2,3-b]pyridin-5-ylmethyl)-amide]	20.6	22	> 40000	–	–	–	–
O=C(NCc1cnc2[nH]ccc2c1)c1cnn(Cc2ccc(COc3cccc(F)n3)cc2)c1 [Example 109, 1-[4-(6-Fluoro-pyridin-2-yloxymethyl)-benzyl]-1H-pyrazole-4-carboxylic acid (1H-pyrrolo[2,3-b]pyridin-5-ylmethyl)-amide]	> 40	4.2	> 40000	–	–	–	–
Cc1cnn(Cc2ccc(Cn3cc(C(=O)NCc4ccc5[nH]c(C)cc5c4)c(C(F)(F)F)n3)cc2)c1 [Example 110, 1-[4-(4-Methyl-pyrazol-1-ylmethyl)-benzyl]-3-trifluoromethyl-1H-pyrazole-4-carboxylic acid (2-methyl-1H-indol-5-ylmethyl)-amide]	> 10	0.562	> 10000	–	–	–	–
Cc1cnn(Cc2ccc(Cn3cc(C(=O)NCc4ccc5[nH]ncc5c4)c(C(F)(F)F)n3)cc2)c1 [Example 111, 1-[4-(4-Methyl-pyrazol-1-ylmethyl)-benzyl]-3-trifluoromethyl-1H-pyrazole-4-carboxylic acid (1H-indazol-5-ylmethyl)-amide]	7.17	0.217	> 10000	–	–	–	–
Cc1cnn(Cc2ccc(Cn3cc(C(=O)NCc4ccc5[nH]ccc5c4)c(C(F)(F)F)n3)cc2)c1 [Example 112, 1-[4-(4-Methyl-pyrazol-1-ylmethyl)-benzyl]-3-trifluoromethyl-1H-pyrazole-4-carboxylic acid (1H-indol-5-ylmethyl)-amide]	> 10	0.0606	> 10000	–	–	–	–
Cc1cnn(Cc2ccc(Cn3cc(C(=O)NCc4cnc5[nH]ccc5c4)nn3)cc2)c1 [Example 115, 1-[4-(4-Methyl-pyrazol-1-ylmethyl)-benzyl]-1H-[1,2,3]triazole-4-carboxylic acid (1H-pyrrolo[2,3-b]pyridin-5-ylmethyl)-amide]	> 10	0.177	> 10000	–	–	–	–
Cc1cnn(Cc2ccc(Cn3cc(C(=O)NCc4cc5cc[nH]c5nc4C)nn3)cc2)c1 [Example 116, 1-[4-(4-Methyl-pyrazol-1-ylmethyl)-benzyl]-1H-[1,2,3]triazole-4-carboxylic acid (6-methyl-1H-pyrrolo[2,3-b]pyridin-5-ylmethyl)-amide]	> 10	0.507	> 10000	–	–	–	–
Cc1cnn(Cc2ccc(Cn3cc(C(=O)NCc4cnc5[nH]ccc5c4)cn3)cc2)c1 [Example 117, 1-[4-(4-Methyl-pyrazol-1-ylmethyl)-benzyl]-1H-pyrazole-4-carboxylic acid (1H-pyrrolo[2,3-b]pyridin-5-ylmethyl)-amide]	> 10	0.078	> 10000	98	45	–	–
Cc1cnn(Cc2ccc(Cn3cc(C(=O)NCc4c(C)nc5[nH]ccc5c4C)cn3)cc2)c1 [Example 118, 1-[4-(4-Methyl-pyrazol-1-ylmethyl)-benzyl]-1H-pyrazole-4-carboxylic acid (4,6-dimethyl-1H-pyrrolo[2,3-b]pyridin-5-ylmethyl)-amide]	> 40	0.014	> 40000	–	–	–	–
Cc1cnn(Cc2ccc(Cn3cc(C(=O)NCc4cnc5[nH]ccc5c4)c(C4CC4)n3)cc2)c1 [Example 120, 3-Cyclopropyl-1-[4-(4-methyl-pyrazol-1-ylmethyl)-benzyl]-1H-pyrazole-4-carboxylic acid (1H-pyrrolo[2,3-b]pyridin-5-ylmethyl)-amide]	> 10	0.118	> 10000	–	–	–	–
Cc1cnn(Cc2ccc(Cn3cc(C(=O)NCc4cccc5[nH]ccc45)c(C(F)(F)F)n3)cc2)c1 [Example 123, 1-[4-(4-Methyl-pyrazol-1-ylmethyl)-benzyl]-3-trifluoromethyl-1H-pyrazole-4-carboxylic acid (1H-indol-4-ylmethyl)-amide]	> 10	0.545	> 10000	–	–	–	–
Cc1cnn(Cc2ccc(Cn3cc(C(=O)NCc4cccc5[nH]ncc45)c(C(F)(F)F)n3)cc2)c1 [Example 124, 1-[4-(4-Methyl-pyrazol-1-ylmethyl)-benzyl]-3-trifluoromethyl-1H-pyrazole-4-carboxylic acid (1H-indazol-4-ylmethyl)-amide]	7.23	0.146	> 10000	–	–	–	–
